System: HBV
Experiment: HBV replication assay: HBV DNA from the supernatants of HepAD38 cells
Assay type: cell-based
Conditions: Hepatitis B virus, 144 h, HBV DNA in supernatant by qPCR at day 6, read-out: Cell Activity
Description: Determination of HBV DNA from the Supernatants of HepAD38 Cells
The anti-HBV activity was analysed in the stable transfected cell line HepAD38, which has been described to secrete high levels of HBV virion particles (Ladner et al., 1997). In brief, HepAD38 cells were cultured at 37° C. at 5% CO2 and 95% humidity in 200 μl maintenance medium, which was Dulbecco's modified Eagle's medium/Nutrient Mixture F-12 (Gibco, Karlsruhe), 10% fetal bovine serum (PAN Biotech Aidenbach) supplemented with 50 μg/ml penicillin/streptomycin (Gibco, Karlsruhe), 2 mM L-glutamine (PAN Biotech, Aidenbach), 400 μg/ml G418 (AppliChem, Darmstadt) and 0.3 μg/ml tetracycline. Cells were subcultured once a week in a 1:5 ratio, but were usually not passaged more than ten times. For the assay 60,000 cells were seeded in maintenance medium without any tetracycline into each well of a 96-well plate and treated with serial half-log dilutions of test compound. To minimize edge effects the outer 36 wells of the plate were not used but were filled with assay medium. On each assay plate six wells for the virus control (untreated HepAD38 cells) and six wells for the cell control (HepAD38 cells treated with 0.3 μg/ml tetracycline) were allocated, respectively. In addition, one plate set with reference inhibitors like BAY 41-4109, entecavir, and lamivudine instead of screening compounds were prepared in each experiment. In general, experiments were performed thrice in triplicates. At day 6 HBV DNA from 100 μl filtrated cell culture supernatant (AcroPrep Advance 96 Filter Plate, […] Supor membran, PALL GmbH, Dreieich) was automatically purified on the MagNa Pure LC instrument using the MagNA Pure 96 DNA and Viral NA Small Volume Kit (Roche Diagnostics, Mannheim) according to the instructions of the manufacturer. EC50 values were calculated from relative copy numbers of HBV DNA In brief, 5 μl of the 100 μl eluate containing HBV DNA were subjected to PCR LC480 Probes Master Kit (Roche) together with 1 μM antisense primer […], 0.5 μM sense primer […], 0.3 μM hybprobes […]-FL and LC640-[…]-PH (TIBMolBiol, Berlin) to a final volume of […]. The PCR was performed on the Light Cycler 480 real time system (Roche Diagnostics, Mannheim) using the following protocol: Pre-incubation for 1 min at 95° C., amplification: 40 cycles×(10 sec at 95° C., 50 sec at 60° C., 1 sec at 70° C.), cooling for 10 sec at 40° C. Viral load was quantitated against known standards using HBV plasmid DNA of pCH-9/3091 (Nassal et al., 1990, Cell 63: 1357-1363) and the LightCycler 480 SW 1.5 software (Roche Diagnostics, Mannheim) and EC50 values were calculated using non-linear regression with GraphPad Prism 6 (GraphPad Software Inc., La Jolla, USA).

Structure (SMILES) | EC50 [µM]
CC(NC(=O)c1cnn2c1CN(C(=O)c1cc3ccccn3c1)CC2)C(F)(F)F (stereo not shown) [Example 50, 5-(indolizine-2-carbonyl)-N-(1,1,1-trifluoropropan-2-yl)-4H,5H,6H,7H-pyrazolo[1,5-a]pyrazine-3-carboxamide] | < 1
CC1Cc2[nH]nc(-c3cscn3)c2CN1C(=O)c1cn2ccccc2c1Br (stereo not shown) [Example 11, 1-bromo-2-[6-methyl-3-(1,3-thiazol-4-yl)-1H,4H,5H,6H,7H-pyrazolo[4,3-c]pyridine-5-carbonyl]indolizine] | 1 to 10
CC(NC(=O)c1[nH]nc2c1CN(C(=O)c1cc3ccccn3c1)CC2)C(F)(F)F (stereo not shown) [Example 52, 5-(indolizine-2-carbonyl)-N-[1,1,1-trifluoropropan-2-yl]-2H,4H,5H,6H,7H-pyrazolo[4,3-c]pyridine-3-carboxamide] | < 100

Molecular target: T1, HBV core protein (C-terminal truncated, 149 aa assembly domain) (Hepatitis B virus genotype D subtype adw, UniProt P03147, C107A/C48A/C61A)
T1 construct: The C-terminal truncated core protein containing 149 amino acids of the N-terminal assembly domain; made in house; host or cells: E. coli BL21 (DE3) Rosetta2, plasmid pET21b
Experiment: Biochemical capsid assembly assay (fluorescence quenching)
Conditions: not given
Description: Biochemical Capsid Assembly Assay
The screening for assembly effector activity was done based on a fluorescence quenching assay published by Zlotnick et al. (2007). The C-terminal truncated core protein containing 149 amino acids of the N-terminal assembly domain fused to a unique cysteine residue at position 150 and was expressed in E. coli using the pET expression system (Merck Chemicals, Darmstadt). Purification of core dimer protein was performed using a sequence of size exclusion chromatography steps. In brief, the cell pellet from 1 L BL21 (DE3) Rosetta2 culture expressing the coding sequence of core protein cloned NdeI/XhoI into expression plasmid pET21b was treated for 1 h on ice with a native lysis buffer (Qproteome Bacterial Protein Prep Kit; Qiagen, Hilden). After a centrifugation step the supernatant was precipitated during 2 h stirring on ice with 0.23 g/ml of solid ammonium sulfate. Following further centrifugation the resulting pellet was resolved in buffer A (100 mM Tris, pH 7.5; 100 mM NaCl; 2 mM DTT) and was subsequently loaded onto a buffer A equilibrated CaptoCore 700 column (GE HealthCare, Frankfurt). The column flow through containing the assembled HBV capsid was dialyzed against buffer N (50 mM NaHCO3 pH 9.6; 5 mM DTT) before urea was added to a final concentration of 3M to dissociate the capsid into core dimers for 1.5 h on ice. The protein solution was then loaded onto a 1 L Sephacryl 5300 column. After elution with buffer N core dimer containing fractions were identified by SDS-PAGE and subsequently pooled and dialyzed against 50 mM HEPES pH 7.5; 5 mM DTT. To improve the assembly capacity of the purified core dimers a second round of assembly and disassembly starting with the addition of 5 M NaCl and including the size exclusion chromatography steps described above was performed. From the last chromatography step core dimer containing fractions were pooled and stored in aliquots at concentrations between 1.5 to 2.0 mg/ml at −80° C.
Immediately before labelling the core protein was reduced by adding freshly prepared DTT in a final concentration of 20 mM. After […] on ice storage buffer and DTT was removed using a Sephadex G-25 column (GE HealthCare, Frankfurt) and 50 mM HEPES, pH 7.5. For labelling 1.6 mg/ml core protein was incubated at 4° C. and darkness overnight with BODIPY-FL maleimide (Invitrogen, Karlsruhe) in a final concentration of 1 mM. After labelling the free dye was removed by an additional desalting step using a Sephadex G-25 column. Labelled core dimers were stored in aliquots at 4° C. In the dimeric state the fluorescence signal of the labelled core protein is high and is quenched during the assembly of the core dimers to high molecular capsid structures. The screening assay was performed in black 384 well microtiter plates in a total assay volume of 10 μl using 50 mM HEPES pH 7.5 and 1.0 to 2.0 μM labelled core protein. Each screening compound was added in 8 different concentrations using a 0.5 log-unit serial dilution starting at a final concentration of 100 μM, 31.6 μM or 10 μM, In any case the DMSO concentration over the entire microtiter plate was 0.5%. The assembly reaction was started by the injection of NaCl to a final concentration of […] which induces the assembly process to approximately 25% of the maximal quenched signal. 6 min after starting the reaction the fluorescence signal was measured using a Clariostar plate reader (BMG Labtech, Ortenberg) with an excitation of 477 nm and an emission of 525 nm. As 100% and 0% assembly control HEPES buffer containing 2.5 M and 0 M NaCl was used. Experiments were performed thrice in triplicates. EC50 values were calculated by non-linear regression analysis using the Graph Pad Prism 6 software (GraphPad Software, La Jolla, USA).

T1 sequence (P03147 1-150, looked up, stated change not applied): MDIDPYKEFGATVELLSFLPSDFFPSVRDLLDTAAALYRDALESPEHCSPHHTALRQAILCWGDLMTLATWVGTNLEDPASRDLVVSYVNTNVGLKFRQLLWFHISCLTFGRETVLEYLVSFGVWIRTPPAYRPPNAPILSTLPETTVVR

Structure (SMILES) | IC50 [µM]
O=C(c1cc2ccccn2c1)N1CCc2onc(-c3cscn3)c2C1 [Example 36, 2-[3-(1,3-thiazol-4-yl)-4H,5H,6H,7H-[1,2]oxazolo[4,5-c]pyridine-5-carbonyl]indolizine] | < 5

Same assay, conditions: BODIPY-FL labelled core protein, assembly started with NaCl, read after 6 min; read-out: Assembly Activity

Structure (SMILES) | IC50 [µM]
O=C(c1cc2ccccn2c1)N1CCc2noc(-c3cscn3)c2C1 [Example 34, 2-[3-(1,3-thiazol-4-yl)-4H,5H,6H,7H-[1,2]oxazolo[4,3-c]pyridine-5-carbonyl]indolizine] | < 5
O=C(NC1(C(F)(F)F)CC1)c1[nH]nc2c1CN(C(=O)c1cc3ccccn3c1)CC2 [Example 33, 5-(indolizine-2-carbonyl)-N-[1-(trifluoromethyl)cyclopropyl]-2H,4H,5H,6H,7H-pyrazolo[4,3-c]pyridine-3-carboxamide] | < 100
C[C@H](NC(=O)c1[nH]nc2c1CN(C(=O)c1cc3ccccn3c1)CC2)C(F)(F)F [Example 45, 5-(indolizine-2-carbonyl)-N-[(2S)-1,1,1-trifluoropropan-2-yl]-2H,4H,5H,6H,7H-pyrazolo[4,3-c]pyridine-3-carboxamide] | < 100
CC(NC(=O)c1[nH]nc2c1CN(C(=O)c1cc3ccccn3c1)CC2)C1COC1 (stereo not shown) [Example 41, 5-(indolizine-2-carbonyl)-N-[1-(oxetan-3-yl)ethyl]-2H,4H,5H,6H,7H-pyrazolo[4,3-c]pyridine-3-carboxamide] | < 100
O=C(NCC1CCCOC1)c1[nH]nc2c1CN(C(=O)c1cc3ccccn3c1)CC2 (stereo not shown) [Example 30, 5-(indolizine-2-carbonyl)-N-[(oxan-3-yl)methyl]-2H,4H,5H,6H,7H-pyrazolo[4,3-c]pyridine-3-carboxamide] | < 100
CC1Cc2[nH]nc(-c3cscn3)c2CN1C(=O)c1cc2c(F)cc(F)cn2c1 (stereo not shown) [Example 44, 6,8-difluoro-2-[6-methyl-3-(1,3-thiazol-4-yl)-1H,4H,5H,6H,7H-pyrazolo[4,3-c]pyridine-5-carbonyl]indolizine] | < 5
O=C(c1cc2ccccn2c1)N1CCc2[nH]nc(-c3ccon3)c2C1 [Example 31, 2-[3-(1,2-oxazol-3-yl)-1H,4H,5H,6H,7H-pyrazolo[4,3-c]pyridine-5-carbonyl]indolizine] | < 5
O=C(c1cc2ccccn2c1)N1CCn2ncc(-c3cscn3)c2C1 [Example 43, 2-[3-(1,3-thiazol-4-yl)-4H,5H,6H,7H-pyrazolo[1,5-a]pyrazine-5-carbonyl]indolizine] | < 5
CC(C)(NC(=O)c1[nH]nc2c1CN(C(=O)c1cc3ccccn3c1)CC2)C(F)(F)F [Example 35, 5-(indolizine-2-carbonyl)-N-(1,1,1-trifluoro-2-methylpropan-2-yl)-2H,4H,5H,6H,7H-pyrazolo[4,3-c]pyridine-3-carboxamide] | < 100
C[C@@H](NC(=O)c1[nH]nc2c1CN(C(=O)c1cc3ccccn3c1)CC2)C(F)(F)F [Example 46, 5-(indolizine-2-carbonyl)-N-[(2R)-1,1,1-trifluoropropan-2-yl]-2H,4H,5H,6H,7H-pyrazolo[4,3-c]pyridine-3-carboxamide] | < 100
CC1Cc2n[nH]c(C(=O)NC(C)C(F)(F)F)c2CN1C(=O)c1cc2ccccn2c1 (stereo not shown) [Example 48, 5-(indolizine-2-carbonyl)-6-methyl-N-(1,1,1-trifluoropropan-2-yl)-2H,4H,5H,6H,7H-pyrazolo[4,3-c]pyridine-3-carboxamide] | < 100
O=C(NCC1CCCO1)c1[nH]nc2c1CN(C(=O)c1cc3ccccn3c1)CC2 (stereo not shown) [Example 29, 5-(indolizine-2-carbonyl)-N-[(oxolan-2-yl)methyl]-2H,4H,5H,6H,7H-pyrazolo[4,3-c]pyridine-3-carboxamide] | < 100
O=C(c1cc2ccccn2c1)N1CCc2[nH]nc(-c3cscn3)c2C1 [Example 37, 2-[3-(1,3-thiazol-4-yl)-1H,4H,5H,6H,7H-pyrazolo[4,3-c]pyridine-5-carbonyl]indolizine] | < 5
O=C(c1cc2ccccn2c1)N1CCc2[nH]nc(-n3ccnn3)c2C1 [Example 28, 2-[3-(1H-1,2,3-triazol-1-yl)-1H,4H,5H,6H,7H-pyrazolo[4,3-c]pyridine-5-carbonyl]indolizine] | < 100
CC1Cc2n[nH]c(C(=O)NC(C)C(F)(F)F)c2CN1C(=O)c1cc2c(Cl)cccn2c1 (stereo not shown) [Example 47, 5-(8-chloroindolizine-2-carbonyl)-6-methyl-N-(1,1,1-trifluoropropan-2-yl)-2H,4H,5H,6H,7H-pyrazolo[4,3-c]pyridine-3-carboxamide] | < 100

Source: patent US20220227789A1, “NOVEL INDOLIZINE-2-CARBOXAMIDES ACTIVE AGAINST THE HEPATITIS B VIRUS (HBV)” (AiCuris GmbH & Co. KG, priority 2019, published 2022)
